According to US20090048210A1, “AGENT FOR THERAPY OR TREATMENT OF WOUND” (priority 2004, published 2009):

Assays:
[1] = test system: normal human neonatal prepuce epidermis keratinized cells (NHEK(F)); test: Human epidermis keratinized cell proliferation assay (WST-8 cell counting); format: cell-based; settings: for overall effect on cell proliferation ability as compared with the control: summary of the 24 and 48 hour experiments
Method: Human epidermis keratinized cells were cultured in the presence of chitin and chitosan as well as their derivatives, and change in proliferation ability of the cell was measured.
As the human epidermis cell, normal human neonatal prepuce epidermis keratinized cells (NHEK(F)) (Kurabo Biomedical, Osaka) were used.
A medium used for measuring NHEK(F) proliferation effect was obtained by adding 1 ml of a PSA solution (Kurabo Biomedical, Osaka) containing penicillin, streptomycin and amphoterin B, and 10% bovine fetus serum (Gibco, USA) to 500 ml of a basic medium for human epidermis keratinized cell HuMedia-KB2 (Kurabo Biomedical, Osaka).
Cells were cultured under 37° C., 5% CO2 and wet environments using a medium for proliferation and a flask for culturing (Lot No. 055522) (Nalge Nunc International, Denmark), and passed to quaternary culture and used in an experiment.
The medium was aspirated when proliferation of cells reach sub-confluent (60 to 80% of the flask bottom area), then, inside of the vessel was washed with HEPES, and 2 ml of trypsin was added to cause release of cells from the vessel bottom. The released cells were recovered by HEPES and added into the neutralization solution to terminate the reaction of trypsin, and then, precipitated by centrifugal separation (1100 rpm, 5 minutes), and the supernatant was discarded. The recovered cells were re-floated on a medium for proliferation, the live cell number was counted by a trypan blue discharge test, and then, transplanted into another flask for culturing so that the live cell concentration to the flask bottom area was […].
For measurement, cells were centrifugally separated, then, re-floated on a medium for measurement and adjusted at 30000 cells/ml to give a cell suspension which was then used.
Into each well of a 96-well multi-plate (Sumitomo Bakelite Co. Ltd., Tokyo), the cell suspension prepared in (1) was disseminated each in an amount of 100 μl at a concentration of 3000 cells/well. For stabilizing disseminated cells, previous culturing was carried out for 12 hours under 37° C., 5% CO2 and wet environments.
Next, into each well of the multi-plate, the chitin-based samples or chitosan-based samples controlled at respective concentrations were added each in an amount of 10 μl. The final concentrations of respective samples in this operation were 100, 10, 1 and 0.1 μg/ml, respectively. True culturing was carried out for 24 hours or 48 hours under 37° C., 5% CO2 and wet environments.
For counting the number of cells proliferated in the culturing, a reagent for measuring cell number (cell counting kit) WST-8 was added in an amount of 10 μl to each well of the multi-plate, and allowed to stand still under 37° C., 5% CO2 and wet environments for 1 to 4 hours to cause coloration. After coloration, the absorbance was measured using EASY READER EAR340AT (Medi-Con Corporation, Osaka). Numerical treatment and statistics of the measured data were carried out using a table calculation software (Microsoft Excel xp (R)).
The cell number and absorbance show a proportional correlation (FIG. 2, Table 2), and this graph gave a calibration curve:
A cell number in dissemination of 3000 was subtracted from the cell number obtained from this calibration curve to give a proliferated cell number (cells/well).

skin deficient wound = test: Skin deficient wound mouse model, skin regeneration; format: in vivo
Method: Fresh skin deficient wound was made using mice and a skin regeneration promoting effect of GlcNAc was studied. As a control, chitin in the form of gel (Chitosan Kowa K.K.) and physiological saline were used. (i) Eight 8-weeks female mice: BALB/c having a body weight of 20 to 25 g were used. In the experiment, one week-conditioning period was set. (ii) An N-acetyl-D-glucosamine (GlcNAc) powder (Seikagaku Kogyo K.K., Tokyo) was diluted in physiological saline so that its concentration was 10 mg/ml, and then, sterilized by filtration through a 0.22 μm millipore filter to give stock solution the stock solution was then diluted with sterile physiological saline to 10 μg/ml and used. (iii) chitin in the form of gel (Chitosan Kowa, Tokyo). Hereinafter, referred to as “chitin gel”. (iv) GlcNAc was blended in chitin gel so that its concentration was 10 μg/g and the blend was used. Hereinafter, the blend is referred to as “chitin gel+GlcNAc”. (i) Production of skin deficient model: Pentobarbital (trade name: Nembutal injection) was diluted 10-fold with physiological saline, and then, administered intraperitoneally to a mouse at 0.005 ml/g. After a sufficient anesthetic effect was confirmed, hair at the back of the mouse was shaved by a hair clipper, and the skin was disinfected with alcohol, and then, a round skin deficient region having a diameter of 5 mm was made using a 5 mm derma punch (FIG. 9). These eight mice were classified into “chitin gel group”, “chitin gel+GlcNAc group”, “GlcNAc group” and “physiological saline group” each containing two mice, and each group was applied once a day. (ii) “chitin gel group” and “chitin gel+GlcNAc group” were directly applied to the skin deficient region for 7 days each at 0.1 g/head, and “GlcNAc group” and “physiological saline group” were each at 1 ml/head. (iii) On 8th and later days, the crust formed was removed directly before application of each group, and application was carried out for further 8 days in the same manner as described above. The size of the skin damage repair region was measured on 8th and 16th days using calipers. Staining method: The skin deficiency repair region was collected, and fixed with a 10% neutral buffer formalin aqueous solution (formaldehyde solution). The repair region was excised to give a longitudinal section, and then, embedded in paraffin according to an ordinary method and sliced into 5 μm by a microtome. It was stained by hematoxylin-eosin staining.

[2] = 24 hours after addition, 0.1 μg/ml
[3] = 24 hours after addition, 1 μg/ml
[4] = 24 hours after addition, 10 μg/ml
[5] = 24 hours after addition, 100 μg/ml
[6] = 48 hours after addition, 0.1 μg/ml
[7] = 48 hours after addition, 1 μg/ml
[8] = 48 hours after addition, 10 μg/ml
[9] = 48 hours after addition, 100 μg/ml
[10] = 5 mm skin deficient region, applied once a day for 16 days
[11] = hematoxylin-eosin staining of the repair region

Compound	average cell proliferation number [1, 2] [cell/well]	average cell proliferation number [1, 3] [cell/well]	average cell proliferation number [1, 4] [cell/well]	average cell proliferation number [1, 5] [cell/well]	proliferation effect as compared with the control (p<0.05) ([1]; 24 hours, 1 μg/ml)	proliferation effect as compared with the control (p<0.05) ([1]; 24 hours, 10 μg/ml)	proliferation effect as compared with the control (p<0.05) ([1]; 24 hours, 100 μg/ml)	average cell proliferation number [1, 6] [cell/well]	average cell proliferation number [1, 7] [cell/well]	average cell proliferation number [1, 8] [cell/well]	average cell proliferation number [1, 9] [cell/well]	proliferation effect as compared with the control (p<0.05) ([1]; 48 hours, 1 μg/ml)	overall effect on cell proliferation ability as compared with the control [1]	visual observation: epidermis / skin formation (skin deficient wound; [10])	visual observation: excess granulation (skin deficient wound; [10])	overall skin regenerating effect in a mouse (skin deficient wound; compared with physiological saline and chitin gel)	histological observation: hypodermis (skin deficient wound; [11])	histological observation: regeneration of skin / epidermis (skin deficient wound; [11])	proliferation effect as compared with the control (p<0.05) ([1]; 48 hours, 10 μg/ml)	proliferation effect as compared with the control (p<0.05) ([1]; 48 hours, 100 μg/ml)
N[C@H]1C(O)O[C@H](CO)[C@@H](O)[C@@H]1O (stereo partly drawn) [GlcN, D-Glucosamine, reference compound]	587 ± 134	766 ± 114	634 ± 65	689 ± 34	significant proliferation stimulating effects	significant proliferation stimulating effects	significant proliferation stimulating effects	1616 ± 244	2108 ± 344	1839 ± 160	1758 ± 424	significant proliferation stimulating effect	significant effect of stimulating cell proliferation ability	–	–	–	–	–	–	–
CC(=O)N[C@H]1C(O)O[C@H](CO)[C@@H](O)[C@@H]1O (stereo partly drawn) [GlcNAc, N-Acetyl-D-Glucosamine]	601 ± 39	774 ± 158	636 ± 51	628 ± 73	significant proliferation stimulating effects	significant proliferation stimulating effects	significant proliferation stimulating effects	1312 ± 169	2372 ± 415	2155 ± 175	2128 ± 165	significant proliferation stimulating effects	significant effect of stimulating cell proliferation ability	complete cutization was recognized	excess granulation did not occur	more excellent than physiological saline and chitin gel	leaves a slight granulation tissue at the center portion	skin regeneration is completed	significant proliferation stimulating effects	significant proliferation stimulating effects
